Assay results: PMC9680032, “Conformationally Locked Carbocyclic Nucleosides Built on a 4′-Hydroxymethyl-3′-hydroxybicyclo[4.1.0]heptane Template. Stereoselective Synthesis and Antiviral Activity” (The Journal of Organic Chemistry, 2022)
Values after ≈ are worked out from the molar mass of the structure shown.

B1: UDA: reference agent against Human Coronavirus (229E) in Table S1 (protein, UniProt P11218 24-372, looked up)
Lectin/endochitinase 1: QRCGSQGGGGTCPALWCCSIWGWCGDSEPYCGRTCENKCWSGERSDHRCGAAVGNPPCGQDRCCSVHGWCGGGNDYCSGSKCQYRCSSSVRGPRVALSGNSTANSIGNVVVTEPLFDQMFSHRKDCPSQGFYSYHSFLVAAESFPAFGTIGDVATRKREVAAFLAHISQATSGERSDVENPHAWGLCHINTTTVTENDFCTSSDWPCAAGKKYSPRGPIQLTHNFNYGLAGQAIGEDLIQNPDLVEKDPIISFKTALWFWMSQHDNKPSCHDIVLNANSAANRIPNKGVIGNIISRAFGHDDFAVRSSSIGFYKRYCDMLGVSYGHDLKYWFDNTPSSEFQRIQMRVAA

Legend:
Coxsackie virus B4 [1] = assay: Antiviral CPE assay, Coxsackie virus B4 in HEp-2 cells; type: cell-based; details: Enterovirus B, B4, HEp-2
[2] = test system: Herpes simplex virus-2 (G); assay: microbe, parasite or virus in culture; type: cell-based; details: Human alphaherpesvirus 2, HEL, read-out: Antiviral EC50 Herpes simplex virus-2 (G)
[3] = test system: Human immunodeficiency virus (IIIB); assay: Antiviral CPE assay, HIV-1 (IIIB) in MT-4 cells; type: cell-based, human immunodeficiency virus type 1 (HIV-1); details: Human immunodeficiency virus 1, IIIB, MT4
Sindbis virus = assay: Antiviral CPE assay, Sindbis virus in Vero cells; type: cell-based; details: Sindbis virus, Vero
[4] = Cytotoxicity in MT-4 cell cultures (MTS); details: human, Cytotoxixity CC50, MT-4 cell cultures, MTS assay
[5] = test system: Influenza B virus B/Ned/537/05; assay: Antiviral CPE assay, Influenza B in MDCK cells; type: cell-based; details: Influenza B virus; MDCK cell cultures
Vaccinia virus = assay: microbe, parasite or virus in culture; type: cell-based; details: Orthopoxvirus vaccinia, HEL, read-out: Antiviral EC50 Vaccinia virus
[6] = Cytotoxicity in Vero cell cultures (MTS); type: cell-based, African green monkey; details: African green monkey, Vero cells (kidney epithelial cells), uninfected, MTS assay, read-out: Cytotoxixity CC50
[7] = test system: Herpes simplex virus-1 (KOS); assay: microbe, parasite or virus in culture; type: cell-based; details: Human alphaherpesvirus 1, HEL, read-out: Antiviral EC50 Herpes simplex virus-1 (KOS)
Punta Toro virus = assay: Antiviral CPE assay, Punta Toro virus in Vero cells; type: cell-based; details: Punta Toro virus, Vero
[8] = test system: Human immunodeficiency virus (ROD); assay: Antiviral CPE assay, HIV-2 (ROD) in MT-4 cells; type: cell-based; details: Human immunodeficiency virus 2, MT4
[9] = test system: Influenza A virus A/HK/7/87 (H3N2); assay: Antiviral CPE assay, Influenza A (H3N2) in MDCK cells; type: cell-based; details: Influenza A virus, H3N2, MDCK
[10] = test system: Respiratory syncytial virus; assay: Antiviral CPE assay, Respiratory syncytial virus in HEp-2 cells; type: cell-based; details: human respiratory syncytial virus, HEp-2
[11] = test system: Influenza A virus A/Ned/378/05A (H1N1); assay: Antiviral CPE assay, Influenza A (H1N1) in MDCK cells; type: cell-based; details: Influenza A virus, H1N1, MDCK
in vitro [12] = details: dog
Reo-virus-1 = assay: Antiviral CPE assay, Reovirus-1 in Vero cells; type: cell-based; details: Vero
Adeno virus-2 = assay: organism not typed; type: cell-based; details: HEL, read-out: Antiviral EC50 Adeno virus-2
Coxsackie virus B4 [13] = assay: Antiviral CPE assay, Coxsackie virus B4 in Vero cells; type: cell-based; details: Enterovirus B, B4, Vero
Yellow Fever virus = assay: microbe, parasite or virus in culture; type: cell-based; details: Yellow fever virus, Vero, read-out: Antiviral EC50 Yellow Fever virus, Vero cell cultures
[14] = test system: Vesicular stomatitis virus; assay: microbe, parasite or virus in culture; type: cell-based; details: Vesicular stomatitis virus, HEp-2, read-out: Antiviral EC50 Vesicular stomatitis virus
Zika virus = assay: Antiviral CPE assay, Zika virus in Vero cells; type: cell-based; details: Zika virus, Vero
Human Coronavirus (229E) = assay: microbe, parasite or virus in culture; type: cell-based; details: for EC50: Human coronavirus 229E, HEL, read-out: Antiviral EC50 Human Coronavirus (229E)
[15] = Cytotoxicity in HEp-2 cell cultures (MTS); details: human
in vitro [16] = details: human

Molecule	EC50 (Coxsackie virus B4 [1])	EC50 [2]	EC50 [3] [µg/mL]	EC50 (Sindbis virus)	CC50 [4] [µg/mL]	EC50 [5]	EC50 (Vaccinia virus)	CC50 [6]	EC50 [7]	EC50 (Punta Toro virus)	EC50 [8] [µg/mL]	EC50 [9]	EC50 [10]	EC50 [11]	CC50 (in vitro [12])	EC50 (Reo-virus-1)	EC50 (Adeno virus-2)	EC50 (Coxsackie virus B4 [13])	EC50 (Yellow Fever virus)	EC50 [14]	further results
Cc1cn(C2CC=C(CO)C3CC32)c(=O)[nH]c1=O (stereo not drawn) [Compound 19, 1-[(1′S,2′S,6′R)-5′-(hydroxymethyl)-bicyclo[4.1.0]hept-4′-en-2′-yl]-5-methylpyrimidine-2,4(1H,3H)-dione]	> 50 µg/mL	> 50 µg/mL	> 109	> 50 µg/mL	109 (≈ 440 µM)	> 50 µg/mL	> 50 µg/mL	> 50 µg/mL	> 50 µg/mL	> 50 µg/mL	> 109	> 50 µg/mL	> 50 µg/mL	> 50 µg/mL	18.6 µg/mL	> 50 µg/mL	> 50 µg/mL	> 50 µg/mL	> 50 µg/mL	> 50 µg/mL	EC50 (Zika virus): > 50 µg/mL; EC50 (Human Coronavirus (229E)): > 50 µg/mL; CC50 [15]: > 50 µg/mL
NC(=O)c1cn(C2CC(O)C(CO)C3CC32)nn1 (stereo not drawn) [Compound 3a, 1-[(1′S,2′S,4′R,5′R,6′R)-4′-Hydroxy-5′-(hydroxymethyl)bicyclo[4.1.0]hept-2′-yl]-1H-1,2,3-triazole-4-carboxamide]	> 50 µg/mL	> 50 µg/mL	> 125	> 50 µg/mL	> 125	> 50 µg/mL	> 50 µg/mL	> 50 µg/mL	> 50 µg/mL	> 50 µg/mL	> 125	> 50 µg/mL	> 50 µg/mL	> 50 µg/mL	> 50 µg/mL	> 50 µg/mL	> 50 µg/mL	> 50 µg/mL	> 50 µg/mL	> 50 µg/mL	EC50 (Zika virus): > 50 µg/mL; EC50 (Human Coronavirus (229E)): > 50 µg/mL; CC50 [15]: > 50 µg/mL
CC(N)C12CC3CC(CC(C3)C1)C2 (centres unmarked) [Rimantadine, reference compound]	–	–	–	–	–	> 200 µM	–	–	–	–	–	0.06 µM	–	88.8 µM	> 200 µM	–	–	–	–	–	–
OCc1cn(C2CC(O)C(CO)C3CC32)nn1 [Compound 3e, (1R,2R,3R,5S,6S)-2-(Hydroxymethyl)-5-[4″-(hydroxymethyl)-1H-1″,2″,3″-triazol-1‴-yl]bicyclo[4.1.0]heptan-3-ol]	> 50 µg/mL	> 50 µg/mL	> 116	> 50 µg/mL	≥ 116	> 50 µg/mL	> 50 µg/mL	> 50 µg/mL	> 50 µg/mL	> 50 µg/mL	> 116	> 50 µg/mL	> 50 µg/mL	> 50 µg/mL	> 50 µg/mL	> 50 µg/mL	> 50 µg/mL	> 50 µg/mL	> 50 µg/mL	> 50 µg/mL	EC50 (Zika virus): > 50 µg/mL; EC50 (Human Coronavirus (229E)): > 50 µg/mL; CC50 [15]: > 50 µg/mL
Nc1nc2c(ncn2C2CC(O)C(CO)C3CC32)c(=O)[nH]1 (stereo not drawn) [Compound 1b, 2-Amino-9-[(1′S,2′S,4′R,5′S,6′S)-4′-hydroxy-5′-(hydroxymethyl) Bicyclo[4.1.0]hept-2′-yl]-1,9-dihydro-6H-purin-6-one]	> 50 µg/mL	> 50 µg/mL	> 125	> 50 µg/mL	> 125	> 50 µg/mL	> 50 µg/mL	> 50 µg/mL	> 50 µg/mL	> 50 µg/mL	> 125	> 50 µg/mL	> 50 µg/mL	> 50 µg/mL	> 50 µg/mL	> 50 µg/mL	> 50 µg/mL	> 50 µg/mL	> 50 µg/mL	> 50 µg/mL	EC50 (Zika virus): > 50 µg/mL; EC50 (Human Coronavirus (229E)): > 50 µg/mL; CC50 [15]: > 50 µg/mL
O=c1[nH]c(=O)n([C@H]2C[C@H](O)[C@@H](CO)O2)cc1/C=C/Br [Brivudin, reference compound]	–	22.1 µM	–	–	–	–	12.6 µM	–	0.2 µM	–	–	–	–	–	–	–	–	–	–	–	CC50 (in vitro [16]): > 250 µM
Nc1nc2c(ncn2COCCO)c(=O)[nH]1 [Acyclovir, reference compound]	–	0.5 µM	–	–	–	–	> 250 µM	–	1.9 µM	–	–	–	–	–	–	–	–	–	–	–	CC50 (in vitro [16]): > 250 µM
Nc1ccn([C@H]2CC[C@@H](CO)O2)c(=O)n1 [Zalcitabine, reference compound]	–	–	–	–	–	–	–	–	–	–	–	–	–	–	–	–	12 µM	–	–	–	–
COc1c(C)c2c(c(O)c1C/C=C(\C)CCC(=O)O)C(=O)OC2 [Mycophenolic acid, reference compound]	–	–	–	3.6 µM	–	–	–	> 100 µM	–	> 100 µM	–	–	–	–	–	7.1 µM	–	> 100 µM	2.6 µM	–	EC50 (Zika virus): 0.2 µM
OCC1C(O)CC(n2cc(-c3ccccc3)nn2)C2CC12 [Compound 3c, (1R,2R,3R,5S,6S)-2-(Hydroxymethyl)-5-(4″-phenyl-1H-1″,2″,3″-triazol-1-yl)bicyclo[4.1.0]heptan-3-ol]	> 50 µg/mL	> 50 µg/mL	> 96.2	> 50 µg/mL	96.2 (≈ 337 µM)	> 50 µg/mL	> 50 µg/mL	> 50 µg/mL	> 50 µg/mL	> 50 µg/mL	> 96.2	> 50 µg/mL	> 50 µg/mL	> 50 µg/mL	20.4 µg/mL	> 50 µg/mL	> 50 µg/mL	> 50 µg/mL	> 50 µg/mL	> 50 µg/mL	EC50 (Zika virus): > 50 µg/mL; EC50 (Human Coronavirus (229E)): > 50 µg/mL; CC50 [15]: > 50 µg/mL
NC(=O)c1ncn([C@@H]2O[C@H](CO)[C@@H](O)[C@H]2O)n1 [Ribavirin, reference compound]	117 µM	–	–	–	–	9.3 µM	–	–	–	–	–	6.4 µM	6.7 µM	7.4 µM	> 100 µM	–	–	–	–	149 µM	CC50 [15]: > 250 µM
Nc1ccn(C[C@@H](CO)OCP(=O)(O)O)c(=O)n1 [Cidofovir, reference compound]	–	7.5 µM	–	–	–	–	8.7 µM	–	39.3 µM	–	–	–	–	–	–	–	9.9 µM	–	–	–	CC50 (in vitro [16]): > 250 µM
O=c1[nH]cnc2c1ncn2[C@H]1CC[C@@H](CO)O1 [Didanosine, reference compound]	–	–	17.9 (≈ 76 µM)	–	> 50	–	–	–	–	–	19.4 (≈ 82.1 µM)	–	–	–	–	–	–	–	–	–	–
Cc1cn([C@H]2C[C@H](F)[C@@H](CO)O2)c(=O)[nH]c1=O [Alovudine, reference compound]	–	–	–	–	–	–	–	–	–	–	–	–	–	–	–	–	0.4 µM	–	–	–	–
Cc1cn([C@H]2C[C@H](N=[N+]=[N-])[C@@H](CO)O2)c(=O)[nH]c1=O [Zidovudine, reference compound]	–	–	0.002 (≈ 0.00748 µM)	–	> 2	–	–	–	–	–	0.002 (≈ 0.00748 µM)	–	–	–	–	–	–	–	–	–	–
Nc1nc(O)c2ncn(COC(CO)CO)c2n1 [Ganciclovir, reference compound]	–	0.09 µM	–	–	–	–	> 100 µM	–	0.4 µM	–	–	–	–	–	–	–	–	–	–	–	CC50 (in vitro [16]): > 100 µM
CC(=O)N[C@H]1[C@H]([C@H](O)[C@H](O)CO)OC(C(=O)O)=C[C@@H]1N=C(N)N [Zanamivir, reference compound]	–	–	–	–	–	1.4 µM	–	–	–	–	–	4.9 µM	–	0.9 µM	> 100 µM	–	–	–	–	–	–
B1	–	–	–	–	–	–	–	–	–	–	–	–	–	–	–	–	–	–	–	–	Antiviral EC50 Human Coronavirus (229E) (Human Coronavirus (229E); HEL cell cultures): 1.2 µg/mL
